Measurements as given in ChEMBL document CHEMBL4507295 (2021).

Assays:
[1] = test system: Tyrosine-protein kinase ABL1 (Homo sapiens), P00519 [Q252H]; conditions: Compound concentration 1000.0 nM
[2] = biological target: RAC-alpha serine/threonine-protein kinase (Homo sapiens) (UniProt P31749); conditions: Compound concentration 1000.0 nM
[3] = biological target: Cyclin-dependent kinase 8 (Homo sapiens) (UniProt P49336); conditions: Compound concentration 1000.0 nM
[4] = biological target: Casein kinase I isoform gamma-2 (Homo sapiens) (UniProt P78368); conditions: Compound concentration 1000.0 nM
[5] = biological target: Epidermal growth factor receptor (Homo sapiens) (UniProt P00533); conditions: Compound concentration 1000.0 nM
[6] = biological target: Receptor tyrosine-protein kinase erbB-3 (Homo sapiens) (UniProt P21860); conditions: Compound concentration 1000.0 nM
[7] = biological target: Vascular endothelial growth factor receptor 3 (Homo sapiens) (UniProt P35916); conditions: Compound concentration 1000.0 nM
[8] = biological target: Tyrosine-protein kinase Fyn (Homo sapiens) (UniProt P06241); conditions: Compound concentration 1000.0 nM
[9] = test system: eIF-2-alpha kinase GCN2 (Homo sapiens), Q9P2K8 [S808G]; conditions: Compound concentration 1000.0 nM
[10] = biological target: Rhodopsin kinase GRK7 (Homo sapiens) (UniProt Q8WTQ7); conditions: Compound concentration 1000.0 nM
[11] = biological target: Serine/threonine-protein kinase haspin (Homo sapiens) (UniProt Q8TF76); conditions: Compound concentration 1000.0 nM
[12] = biological target: Inhibitor of nuclear factor kappa-B kinase subunit alpha (Homo sapiens) (UniProt O15111); conditions: Compound concentration 1000.0 nM
[13] = biological target: Mast/stem cell growth factor receptor Kit (Homo sapiens) (UniProt P10721); conditions: Compound concentration 1000.0 nM
[14] = biological target: Mitogen-activated protein kinase kinase kinase 1 (Homo sapiens) (UniProt Q13233); conditions: Compound concentration 1000.0 nM
[15] = biological target: Mitogen-activated protein kinase kinase kinase 15 (Homo sapiens) (UniProt Q6ZN16); conditions: Compound concentration 1000.0 nM
[16] = biological target: MAP kinase-activated protein kinase 5 (Homo sapiens) (UniProt Q8IW41); conditions: Compound concentration 1000.0 nM
[17] = biological target: Dual specificity mitogen-activated protein kinase kinase 7 (Homo sapiens) (UniProt O14733); conditions: Compound concentration 1000.0 nM
[18] = biological target: Mitogen-activated protein kinase kinase kinase 11 (Homo sapiens) (UniProt Q16584); conditions: Compound concentration 1000.0 nM
[19] = biological target: Serine/threonine-protein kinase mTOR (Homo sapiens) (UniProt P42345); conditions: Compound concentration 1000.0 nM
[20] = biological target: Myosin light chain kinase, smooth muscle (Homo sapiens) (UniProt Q15746); conditions: Compound concentration 1000.0 nM
[21] = biological target: Myosin light chain kinase family member 4 (Homo sapiens) (UniProt Q86YV6); conditions: Compound concentration 1000.0 nM
[22] = biological target: Serine/threonine-protein kinase NLK (Homo sapiens) (UniProt Q9UBE8); conditions: Compound concentration 1000.0 nM
[23] = biological target: Mitogen-activated protein kinase 11 (Homo sapiens) (UniProt Q15759); conditions: Compound concentration 1000.0 nM
[24] = biological target: Platelet-derived growth factor receptor alpha (Homo sapiens) (UniProt P16234); conditions: Compound concentration 1000.0 nM
[25] = biological target: Platelet-derived growth factor receptor beta (Homo sapiens) (UniProt P09619); conditions: Compound concentration 1000.0 nM
[26] = biological target: Cyclin-dependent kinase 14 (Homo sapiens) (UniProt O94921); conditions: Compound concentration 1000.0 nM
[27] = biological target: Phosphatidylinositol 4-phosphate 3-kinase C2 domain-containing subunit beta (Homo sapiens) (UniProt O00750); conditions: Compound concentration 1000.0 nM
[28] = biological target: Protein kinase C eta type (Homo sapiens) (UniProt P24723); conditions: Compound concentration 1000.0 nM
[29] = biological target: Protein kinase C theta type (Homo sapiens) (UniProt Q04759); conditions: Compound concentration 1000.0 nM
[30] = biological target: Dual serine/threonine and tyrosine protein kinase (Homo sapiens) (UniProt Q6XUX3); conditions: Compound concentration 1000.0 nM
[31] = biological target: Rho-associated protein kinase 2 (Homo sapiens) (UniProt O75116); conditions: Compound concentration 1000.0 nM
[32] = biological target: Proto-oncogene tyrosine-protein kinase ROS (Homo sapiens) (UniProt P08922); conditions: Compound concentration 1000.0 nM
[33] = biological target: Serine/threonine-protein kinase TAO1 (Homo sapiens) (UniProt Q7L7X3); conditions: Compound concentration 1000.0 nM
[34] = biological target: Serine/threonine-protein kinase TAO2 (Homo sapiens) (UniProt Q9UL54); conditions: Compound concentration 1000.0 nM
[35] = biological target: Serine/threonine-protein kinase 32B (Homo sapiens) (UniProt Q9NY57); conditions: Compound concentration 1000.0 nM
[36] = biological target: Tyrosine-protein kinase ZAP-70 (Homo sapiens) (UniProt P43403); conditions: Compound concentration 1000.0 nM
[37] = biological target: T1, 5-hydroxytryptamine receptor 2C (Homo sapiens) (UniProt P28335); conditions: Compound concentration 10.0 uM
T1 sequence (whole entry): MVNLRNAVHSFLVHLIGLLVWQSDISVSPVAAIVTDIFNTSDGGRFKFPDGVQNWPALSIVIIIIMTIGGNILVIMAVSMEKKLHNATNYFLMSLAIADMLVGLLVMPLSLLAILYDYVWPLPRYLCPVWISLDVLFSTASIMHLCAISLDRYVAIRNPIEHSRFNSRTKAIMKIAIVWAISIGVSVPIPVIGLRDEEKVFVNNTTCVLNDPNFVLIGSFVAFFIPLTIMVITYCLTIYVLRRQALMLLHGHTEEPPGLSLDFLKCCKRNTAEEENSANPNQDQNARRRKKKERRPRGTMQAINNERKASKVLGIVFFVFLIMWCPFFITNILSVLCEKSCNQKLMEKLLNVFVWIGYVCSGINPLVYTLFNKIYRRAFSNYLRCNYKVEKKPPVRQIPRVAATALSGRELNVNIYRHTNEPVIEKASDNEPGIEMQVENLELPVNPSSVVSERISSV

[38] = biological target: Sodium-dependent dopamine transporter (Homo sapiens) (UniProt Q01959); conditions: Compound concentration 10.0 uM
[39] = biological target: Alpha-1B adrenergic receptor (Homo sapiens) (UniProt P35368); conditions: Compound concentration 10.0 uM

Proto-oncogene tyrosine-protein kinase ROS (Homo sapiens), sequence (P08922 whole entry): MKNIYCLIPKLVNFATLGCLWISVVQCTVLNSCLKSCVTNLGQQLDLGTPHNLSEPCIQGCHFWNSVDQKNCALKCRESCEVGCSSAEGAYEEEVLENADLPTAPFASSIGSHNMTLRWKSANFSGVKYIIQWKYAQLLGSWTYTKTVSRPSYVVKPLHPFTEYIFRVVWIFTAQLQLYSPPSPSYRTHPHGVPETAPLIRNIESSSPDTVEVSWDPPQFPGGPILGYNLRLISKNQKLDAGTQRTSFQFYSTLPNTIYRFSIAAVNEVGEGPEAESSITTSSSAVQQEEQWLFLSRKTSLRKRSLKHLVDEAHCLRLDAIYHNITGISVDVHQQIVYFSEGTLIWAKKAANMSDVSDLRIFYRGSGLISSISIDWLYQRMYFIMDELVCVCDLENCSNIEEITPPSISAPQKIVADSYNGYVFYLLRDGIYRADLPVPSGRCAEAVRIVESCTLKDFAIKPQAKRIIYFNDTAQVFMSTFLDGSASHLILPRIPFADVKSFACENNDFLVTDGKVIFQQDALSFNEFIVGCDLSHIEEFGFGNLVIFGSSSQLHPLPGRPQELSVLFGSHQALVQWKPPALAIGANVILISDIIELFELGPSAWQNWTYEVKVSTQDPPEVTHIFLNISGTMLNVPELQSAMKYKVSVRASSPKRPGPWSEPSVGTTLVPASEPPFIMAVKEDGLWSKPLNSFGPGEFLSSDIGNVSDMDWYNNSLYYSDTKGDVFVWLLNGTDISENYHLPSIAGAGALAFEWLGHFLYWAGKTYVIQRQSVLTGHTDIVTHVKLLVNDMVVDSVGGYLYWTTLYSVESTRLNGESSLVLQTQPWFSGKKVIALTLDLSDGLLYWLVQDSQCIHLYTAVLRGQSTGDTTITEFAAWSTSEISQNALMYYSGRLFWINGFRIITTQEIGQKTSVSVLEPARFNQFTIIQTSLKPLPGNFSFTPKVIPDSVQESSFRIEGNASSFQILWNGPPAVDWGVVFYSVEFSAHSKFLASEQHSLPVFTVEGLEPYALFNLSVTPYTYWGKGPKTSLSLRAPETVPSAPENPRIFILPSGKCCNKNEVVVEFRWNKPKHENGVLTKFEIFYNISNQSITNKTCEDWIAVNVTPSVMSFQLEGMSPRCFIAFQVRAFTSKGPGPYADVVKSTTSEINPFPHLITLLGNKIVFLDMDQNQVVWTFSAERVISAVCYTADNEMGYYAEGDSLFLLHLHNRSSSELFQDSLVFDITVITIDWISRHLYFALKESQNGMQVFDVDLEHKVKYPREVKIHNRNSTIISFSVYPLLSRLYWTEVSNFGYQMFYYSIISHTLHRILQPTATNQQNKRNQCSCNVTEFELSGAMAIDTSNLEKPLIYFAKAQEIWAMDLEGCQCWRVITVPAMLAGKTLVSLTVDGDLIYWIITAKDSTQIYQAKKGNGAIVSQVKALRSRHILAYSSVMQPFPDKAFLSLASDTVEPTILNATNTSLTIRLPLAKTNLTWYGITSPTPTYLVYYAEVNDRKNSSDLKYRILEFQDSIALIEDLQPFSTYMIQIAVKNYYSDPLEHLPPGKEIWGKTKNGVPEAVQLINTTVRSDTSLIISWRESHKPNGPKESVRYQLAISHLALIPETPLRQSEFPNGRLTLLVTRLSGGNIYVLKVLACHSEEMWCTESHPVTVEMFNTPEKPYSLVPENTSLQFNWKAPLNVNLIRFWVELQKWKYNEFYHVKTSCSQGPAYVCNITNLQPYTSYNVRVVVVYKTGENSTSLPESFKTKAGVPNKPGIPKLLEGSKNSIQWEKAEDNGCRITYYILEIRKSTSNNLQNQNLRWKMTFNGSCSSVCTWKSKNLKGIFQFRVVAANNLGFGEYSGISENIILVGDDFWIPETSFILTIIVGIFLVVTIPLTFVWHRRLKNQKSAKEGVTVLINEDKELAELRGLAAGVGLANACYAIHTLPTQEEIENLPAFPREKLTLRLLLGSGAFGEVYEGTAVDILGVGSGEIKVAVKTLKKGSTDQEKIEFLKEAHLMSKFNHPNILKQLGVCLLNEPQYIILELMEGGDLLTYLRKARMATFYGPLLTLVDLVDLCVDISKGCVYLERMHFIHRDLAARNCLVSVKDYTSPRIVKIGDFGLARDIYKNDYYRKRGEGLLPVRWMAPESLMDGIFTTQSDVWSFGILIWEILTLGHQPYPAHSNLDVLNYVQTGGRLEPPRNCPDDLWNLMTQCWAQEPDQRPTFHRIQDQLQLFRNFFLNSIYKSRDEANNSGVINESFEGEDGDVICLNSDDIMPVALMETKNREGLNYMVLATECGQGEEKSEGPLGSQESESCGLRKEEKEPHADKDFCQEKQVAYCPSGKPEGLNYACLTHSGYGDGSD
Phosphatidylinositol 4-phosphate 3-kinase C2 domain-containing subunit beta (Homo sapiens), sequence (O00750 whole entry, the tested form may be a part): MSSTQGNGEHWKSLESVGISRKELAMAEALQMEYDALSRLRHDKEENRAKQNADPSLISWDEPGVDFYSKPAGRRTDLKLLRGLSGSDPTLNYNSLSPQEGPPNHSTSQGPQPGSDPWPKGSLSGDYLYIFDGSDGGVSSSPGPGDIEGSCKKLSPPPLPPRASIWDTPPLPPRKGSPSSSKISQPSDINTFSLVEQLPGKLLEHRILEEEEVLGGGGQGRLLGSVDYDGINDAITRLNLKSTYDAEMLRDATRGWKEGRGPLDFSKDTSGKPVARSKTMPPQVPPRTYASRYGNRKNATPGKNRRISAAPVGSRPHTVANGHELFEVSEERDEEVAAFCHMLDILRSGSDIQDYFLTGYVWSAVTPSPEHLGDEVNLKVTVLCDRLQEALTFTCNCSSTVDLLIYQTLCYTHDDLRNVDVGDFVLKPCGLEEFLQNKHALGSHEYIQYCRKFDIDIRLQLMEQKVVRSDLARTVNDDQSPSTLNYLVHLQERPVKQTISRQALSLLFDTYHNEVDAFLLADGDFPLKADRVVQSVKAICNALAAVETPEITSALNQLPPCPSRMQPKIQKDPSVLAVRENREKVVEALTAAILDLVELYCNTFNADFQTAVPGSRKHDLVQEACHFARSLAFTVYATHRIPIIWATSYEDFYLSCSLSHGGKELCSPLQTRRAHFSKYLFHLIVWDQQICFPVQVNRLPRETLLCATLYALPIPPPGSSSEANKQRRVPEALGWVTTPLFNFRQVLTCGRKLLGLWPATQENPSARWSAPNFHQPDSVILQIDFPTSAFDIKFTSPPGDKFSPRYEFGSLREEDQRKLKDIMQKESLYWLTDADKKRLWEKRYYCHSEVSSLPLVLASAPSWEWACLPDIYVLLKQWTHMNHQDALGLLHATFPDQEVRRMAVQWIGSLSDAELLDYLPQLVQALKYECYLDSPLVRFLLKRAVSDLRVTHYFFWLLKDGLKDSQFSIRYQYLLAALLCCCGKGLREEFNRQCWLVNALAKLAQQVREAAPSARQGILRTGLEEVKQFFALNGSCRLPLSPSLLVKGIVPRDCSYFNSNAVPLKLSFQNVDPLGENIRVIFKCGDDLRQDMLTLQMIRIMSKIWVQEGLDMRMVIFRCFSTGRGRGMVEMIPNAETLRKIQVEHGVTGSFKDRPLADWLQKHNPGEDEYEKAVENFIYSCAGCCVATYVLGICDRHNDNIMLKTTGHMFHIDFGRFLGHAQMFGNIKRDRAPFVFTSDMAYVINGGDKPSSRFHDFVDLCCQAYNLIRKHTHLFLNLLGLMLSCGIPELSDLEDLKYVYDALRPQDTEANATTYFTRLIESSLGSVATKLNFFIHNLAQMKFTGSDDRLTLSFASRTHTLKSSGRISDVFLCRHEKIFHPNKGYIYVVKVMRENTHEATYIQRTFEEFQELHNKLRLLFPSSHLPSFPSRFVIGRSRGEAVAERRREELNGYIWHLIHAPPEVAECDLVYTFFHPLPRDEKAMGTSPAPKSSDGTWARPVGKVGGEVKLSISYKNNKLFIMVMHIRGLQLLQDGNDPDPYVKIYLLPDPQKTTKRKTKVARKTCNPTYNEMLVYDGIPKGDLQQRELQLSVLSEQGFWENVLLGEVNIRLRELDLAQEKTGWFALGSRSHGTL
Cyclin-dependent kinase 8 (Homo sapiens), sequence (P49336 whole entry, canonical isoform): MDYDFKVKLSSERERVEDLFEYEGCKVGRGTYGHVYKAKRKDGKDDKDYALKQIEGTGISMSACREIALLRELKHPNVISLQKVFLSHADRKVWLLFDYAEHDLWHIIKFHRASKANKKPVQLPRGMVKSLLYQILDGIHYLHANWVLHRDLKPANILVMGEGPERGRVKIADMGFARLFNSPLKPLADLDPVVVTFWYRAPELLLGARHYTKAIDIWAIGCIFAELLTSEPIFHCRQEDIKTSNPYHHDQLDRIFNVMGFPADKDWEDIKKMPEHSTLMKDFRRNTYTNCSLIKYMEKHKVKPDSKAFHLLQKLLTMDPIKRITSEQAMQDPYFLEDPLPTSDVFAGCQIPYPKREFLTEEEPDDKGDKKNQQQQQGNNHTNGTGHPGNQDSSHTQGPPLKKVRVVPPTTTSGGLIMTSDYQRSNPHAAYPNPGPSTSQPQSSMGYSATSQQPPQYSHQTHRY
Myosin light chain kinase family member 4 (Homo sapiens), sequence (Q86YV6 whole entry): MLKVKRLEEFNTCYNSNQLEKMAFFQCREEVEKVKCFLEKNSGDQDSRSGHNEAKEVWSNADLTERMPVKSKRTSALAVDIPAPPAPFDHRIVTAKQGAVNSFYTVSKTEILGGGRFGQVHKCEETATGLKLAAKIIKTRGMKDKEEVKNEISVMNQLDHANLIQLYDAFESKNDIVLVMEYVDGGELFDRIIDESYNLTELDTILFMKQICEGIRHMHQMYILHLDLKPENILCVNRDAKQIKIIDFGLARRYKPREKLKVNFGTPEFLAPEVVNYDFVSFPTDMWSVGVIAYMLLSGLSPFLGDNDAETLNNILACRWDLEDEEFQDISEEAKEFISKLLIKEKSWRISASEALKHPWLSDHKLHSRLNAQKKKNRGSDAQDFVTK

N#CC1(c2ccccn2)CCN(Cc2cc(C(=O)N3CCCC3)c(=O)n3ccccc23)CC1
inactive: residual activity [1] 90% | residual activity [2] 91% | residual activity [3] 100% | residual activity [4] 76% | residual activity [5] 100% | residual activity [6] 93% | residual activity [7] 86% | residual activity [8] 83% | residual activity [9] 78% | residual activity [10] 87% | residual activity [11] 100% | residual activity [12] 94% | residual activity [13] 95% | residual activity [14] 98% | residual activity [15] 100% | residual activity [16] 100% | residual activity [17] 100% | residual activity [18] 89% | residual activity [19] 58% | residual activity [20] 100% | residual activity [21] 95% | residual activity [22] 92% | residual activity [23] 76% | residual activity [24] 97% | residual activity [25] 86% | residual activity [26] 100% | residual activity [27] 100% | residual activity [28] 100% | residual activity [29] 100% | residual activity [30] 80% | residual activity [31] 72% | residual activity [32] 97% | residual activity [33] 100% | residual activity [34] 100% | residual activity [35] 100% | residual activity [36] 100% | inhibition [37] -2.49% | inhibition [38] 18.6% | inhibition [39] 1.36%

N#CC1(c2ccccn2)CCN(Cc2cc(C(=O)O)c(=O)n3ccccc23)CC1 [MSD-M1PAM]
inactive: residual activity [1] 72% | residual activity [2] 100% | residual activity [3] 100% | residual activity [4] 91% | residual activity [5] 83% | residual activity [6] 100% | residual activity [7] 100% | residual activity [8] 99% | residual activity [9] 100% | residual activity [10] 77% | residual activity [11] 100% | residual activity [12] 100% | residual activity [13] 100% | residual activity [14] 98% | residual activity [15] 100% | residual activity [16] 56% | residual activity [17] 95% | residual activity [18] 100% | residual activity [19] 90% | residual activity [20] 87% | residual activity [21] 100% | residual activity [22] 100% | residual activity [23] 100% | residual activity [24] 90% | residual activity [25] 100% | residual activity [26] 100% | residual activity [27] 97% | residual activity [28] 100% | residual activity [29] 96% | residual activity [30] 75% | residual activity [31] 85% | residual activity [32] 90% | residual activity [33] 100% | residual activity [34] 97% | residual activity [35] 100% | residual activity [36] 100% | inhibition [37] 10.5% | inhibition [38] -7.27% | inhibition [39] 6.68%
